The values that follow are results of earlier work, collected in patent US20170369677A1, “MATERIALS FREE OF ENDOCRINE DISRUPTIVE ACTIVITY” (CertiChem, Inc., priority 2006, published 2017).

Like-named read-outs stand apart in the source and are kept apart here.

Data set [1] deals with ER. The following applies: statement in words.
For data set [2] the following is noted: statement in words.
The conditions of data set [3]: recommended daily dietary allowance for these antioxidants.
Data set [4] relates to snails, fish, frogs, and rodents.
For data set [5] the following is noted: for Carcinogenic or Other Toxic Effects: common pigments used in plastic formulations, Table P-3.

Consider `CC(C)(C)c1cc(Cc2cc(C(C)(C)C)c(O)c(C(C)(C)C)c2)cc(C(C)(C)C)c1O` [4,4′-methylenebis (2,6-di-t-butylphenol)], for which, in data set [1], the “ER binding activity observed” value is given as “lack of binding activity”. Consider `C[C@]12CC[C@@H]3c4ccc(O)cc4CC[C@H]3[C@@H]1CC[C@@H]2O` [17β-estradiol (E2), 17β-estradiol, reference compound], for which the “estrogenic or androgenic activity” value in data set [2] is given as “strong estrogen”. For `COc1ccc(O)c(C(C)(C)C)c1` [BHA, Butylated hydroxyanisole], in data set [3], the ADI was 0 to 0.5 mg/kg. Turning to `Cc1cc(C(C)(C)C)c(O)c(C(C)(C)C)c1` [BHT, Butylated hydroxytoulene], the “estrogenic or androgenic activity” value in data set [2] is recorded as “has estrogenic activity”. In data set [3], the ADI was 0 to 0.125 mg/kg.

Consider `CC(C)(c1ccc(O)cc1)c1ccc(O)cc1` [Bisphenol A], for which the “levels in human umbilical cords” value is 0.2 to 2 µg/kg. In addition, the “dose at which deleterious developmental changes have been reported” value in data set [4] is 0.5 to 2 µg/kg/day. The “dose at which deleterious developmental changes have been reported” value in data set [4] (listed as bisphenol A) was 0.5 to 2 µg/kg/day. In data set [2], the “estrogenic or androgenic activity” value was “deleterious estrogenic activity”.

With `CC(C)CCC[C@@H](C)[C@H]1CC[C@H]2[C@@H]3CC=C4C[C@@H](O)CC[C@]4(C)[C@H]3CC[C@]12C` [Cholesterol], the “estrogenic or androgenic activity” value in data set [2] is on record as “little or no known estrogenic or androgenic activity”. With `C[C@]12CCC(=O)C[C@@H]1CC[C@@H]1[C@@H]2CC[C@]2(C)[C@@H](O)CC[C@@H]12` [DHT, 5a-dihydrotestosterone, reference compound], in data set [2], the “estrogenic or androgenic activity” value is on record as “strong androgen”.

For the molecule `C=C` [Ethylene], the “estrogenic or androgenic activity” value in data set [2] was “no known estrogenic activity or other deleterious effects”. On to `[C-]#N.[C-]#N.[C-]#N.[C-]#N.[C-]#N.[C-]#N.[Fe+2].[Fe+3].[NH4+]` [Ferric amonimum, ferric amonimum ferrocyanide], for which the “Carcinogenic or Other Toxic Effects” value in data set [5] is “Yes”. For the molecule `[O]=[Mo](=[O])([O-])[O-].[Pb+2]` [Lead molybdate], the “Carcinogenic or Other Toxic Effects” value in data set [5] is reported as “Yes”. As to `CCCOC(=O)c1cc(O)c(O)c(O)c1` [Propyl gallate], the ADI in data set [3] is 0 to 2.5 mg/kg.

With `CC(C)(C)c1cc(O)ccc1O` [TBHQ, Tert-Butylhydroquinone], the ADI in data set [3] was 0 to 0.2 mg/kg. For the molecule `O=C(O)c1ccc(C(=O)O)cc1` [Terephthalic, terephthalic acid], the “estrogenic or androgenic activity” value in data set [2] is recorded as “deleterious estrogenic activity”. As for `C=CCl` [Vinylchloride], the “toxic effects stated in text” value in data set [5] (statement in words) is “other toxic effects”.

As to `CC(=O)[C@H]1CC[C@H]2[C@@H]3CCC4=CC(=O)CC[C@]4(C)[C@H]3CC[C@]12C` [progesterone], in data set [2], the “estrogenic or androgenic activity” value was “androgenic, but no known estrogenic, activity”. Consider Tocopherols, for which the ADI in data set [3] is 0.15 to 2 mg/kg.
